{"source": "paper PMC8791477", "about": "“Evaluation of SARS-CoV-2 entry, inflammation and new therapeutics in human lung tissue cells” (PLoS Pathogens, 2022)", "key": {"[1]": {"tested_on": "DNA-dependent DNA polymerases of some DNA viruses", "conditions": "cited from earlier work"}, "in vitro [2]": {"experiment": "in vitro", "conditions": "African green monkey, CC50 Vero E6, absence of virus"}, "in vitro [3]": {"experiment": "in vitro", "conditions": "human, CC50 HLT, absence of virus"}}, "data": [{"smiles": "Nc1ncnc2c1ncn2[C@@H]1O[C@H](CO)[C@@H](O)[C@@H]1O", "note": "[Vidarabine]", "values": [{"measurement": "inhibition of viral DNA polymerases relative to those of host cells", "setting": "[1]", "result": "Purine nucleoside analogue ^80. Competitively inhibits DNA-dependent DNA polymerases of some DNA viruses approximately 40 times more than those of host cells ^80."}, {"measurement": "CC50", "setting": "in vitro [2]", "result": "> 100", "unit": "µM"}, {"measurement": "CC50", "setting": "in vitro [3]", "result": "> 100", "unit": "µM"}]}]}
